{"source": "patent US5426103A", "about": "“Certain macrocyclic lactam derivatives” (Ciba-Geigy Corporation, priority 1993, dated 1995)", "key": {"plasma ANF": {"tested_on": "plasma ANF", "test": "effect on rat plasma ANF concentration in ANF-infused conscious rats", "type": "in vivo, rat (male Sprague-Dawley)", "conditions": "about 1-10 mg/kg p.o., ANF infusion 450 ng/kg/min i.v.", "procedure": "The effect of the compounds of the invention on rat plasma ANF concentration can be determined as follows:\nMale Sprague-Dawley rats (275-390 g) are anesthetized with ketamine (150 mg/kg)/acepromazine (10%) and instrumented with catheters in the femoral artery and vein to obtain blood samples and infuse ANF, respectively. The rats are tethered with a swivel system and are allowed to recover for 24 hours before being studied in the conscious, unrestrained state.\nIn this assay, plasma ANF levels are determined in the presence and absence of NEP inhibition. On the day of study, all rats are infused continuously with ANF at 450 ng/kg/min. i.v. for the entire 5 hours of the experiment. Sixty minutes after beginning the infusion, blood samples for baseline ANF measurements are obtained (time 0) and the rats are then randomly divided into groups treated with the test compound or vehicle. Additional blood samples are taken 30, 60, 120, 180 and 240 minutes after administration of the test compound.\nPlasma concentrations are determined by a specific radioimmunoassay. […] The supermatant is decanted and the pellets counted in a gamma counter. […] Plasma ANF levels are expressed as a percent of those measured in vehicle-treated animals which received ANF alone (450 ng/kg/min i.v.)."}, "[1]": {"tested_on": "DOCA-salt hypertensive rats", "test": "antihypertensive effect in DOCA-salt hypertensive rats", "type": "in vivo", "conditions": "DOCA-salt hypertensive rat, 30 mg/kg p.o. in 3% corn starch", "procedure": "The antihypertensive effect can be determined in desoxycorticosterone acetate (DOCA)-salt hypertensive rats. DOCA-salt hypertensive rats (280-380 g) are prepared by the standard method. Rats underwent a unilateral nephrectomy and one week later are implanted with silastic pellets containing 100 mg/kg of DOCA. The rats are maintained on 1% NaCl/0.2% KCl drinking water for three to five weeks until sustained hypertension is established. The antihypertensive activity is evaluated at this time. Two days before an experiment, the rats are anesthetized with methoxyflurane and instrumented with catheters in the femoral artery to measure arterial blood pressure. Forty-eight hours later, baseline arterial pressure and heart rate are recorded during a 1 hour period. The test compound (30 mg/kg p.o.) or vehicle is then administered and the same cardiovascular parameters are monitored for an additional 5 hours."}, "ANF-induced natriuresis": {"tested_on": "ANF-induced natriuresis", "test": "potentiation of the natriuretic effect of ANF in anesthetized rats", "type": "in vivo, rat (male Sprague-Dawley)", "conditions": "rat, 30 mg/kg in polyethylene glycol 400, intraduodenally; ANF 1 μg/kg i.v. bolus", "procedure": "The potentiation of the natriuretic effect of ANF can be determined as follows: Male Sprague-Dawley rats (280-360 g) are anesthetized with Inactin (100 mg/kg i.p.) and instrumented with catheters in the femoral artery, femoral vein and urinary bladder to measure arterial pressure, administer ANF and collect urine, respectively. A continuous infusion of normal saline (33 μl/min) is maintained throughout the experiment to promote diuresis and sodium excretion. The experimental protocol consists of an initial 15 minute collection period (designated as pre-control) followed by three additional collection periods. Immediately after completion of the pre-control period, test compound or vehicle is administered; nothing is done for the next 45 minutes. […] At the conclusion of this period, ANF is administered (1 μg/kg i.v. bolus) to all animals and arterial pressure and renal parameters are determined during two consecutive 15 minutes collection periods. Mean arterial pressure, urine flow and urinary sodium excretion are determined for all collection periods. Blood pressure is measured with a Gould p50 pressure transducer, urine flow is determined gravimetrically, sodium concentration is measured by flame photometry, and urinary sodium excretion is calculated as the product of urine flow and urine sodium concentration."}}, "data": [{"smiles": "CC(=O)SC[C@H]1CCCCCC[C@H](C(=O)N2C[C@H](O)C[C@H]2C(=O)OCc2ccccc2)NC1=O", "note": "[N-[[trans 3-(acetylthiomethyl)-2-oxo-1-azacyclodecan-10-yl]-carbonyl]-trans-4-hydroxy-L-proline benzyl ester]", "values": [{"measurement": "increase in plasma ANF levels", "setting": "plasma ANF", "value": "significant increases in plasma ANF levels"}, {"measurement": "reduction in blood pressure", "setting": "[1]", "value": "significant reduction in blood pressure"}, {"measurement": "potentiation of ANF-induced natriuresis", "setting": "ANF-induced natriuresis", "value": "significant potentiation of ANF-induced natriuresis"}]}]}
